Here are results for 17 molecules from patent US9309222B2, “Phenyl linked quinolinyl modulators of RORγt” (Janssen Pharmaceutica NV, priority 2012, dated 2016).

In assay [1] the target is T1, human RORγt ligand binding domain (RORγt LBD) (Homo sapiens, UniProt P51449).
T1 construct: His-tag (N); TurboTEV protease cleavage site (ENLYFQG) (N); made in house; host or cells: E. coli (pHIS1, modified pET vector)
T1 sequence (P51449 with tags, fused parts or gaps): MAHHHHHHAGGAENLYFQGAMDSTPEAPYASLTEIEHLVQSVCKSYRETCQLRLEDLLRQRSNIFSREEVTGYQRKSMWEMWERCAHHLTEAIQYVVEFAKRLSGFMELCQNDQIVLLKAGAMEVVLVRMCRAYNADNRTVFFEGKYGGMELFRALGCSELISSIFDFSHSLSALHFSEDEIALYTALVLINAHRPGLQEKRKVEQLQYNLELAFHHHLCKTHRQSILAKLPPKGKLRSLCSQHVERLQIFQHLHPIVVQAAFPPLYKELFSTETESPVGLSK
The assay is described as follows: RORγt ThermoFluor assay (thermal shift, ligand binding affinity). The following applies: estimated from concentration response of thermal shift. Here is the method:
This approach is applicable to a wide variety of systems, and rigorous in theoretical interpretation through quantitation of equilibrium binding constants (KD).
The shift in the melting point described as a ΔTm is proportional to the concentration and affinity of the ligand.
RORγt ThermoFluor® Assay Construct
Protein and compound solutions are dispensed into black 384-well polypropylene PCR microplates (Abgene) and overlayed with silicone oil (1 μL Fluka, type DC 200) to prevent evaporation.
Fluorescence was measured by continuous illumination with UV light (Hamamatsu LC6) supplied via fiber optic and filtered through a band-pass filter (380-400 nm; >6 OD cutoff). Fluorescence emission of the entire 384-well plate was detected by measuring light intensity using a CCD camera (Sensys, Roper Scientific) filtered to detect 500±25 nm, resulting in simultaneous and independent readings of all 384 wells. Images were collected at each temperature, and the sum of the pixel intensity in a given area of the assay plate was recorded versus temperature. Reference wells contained RORγt without compounds, and the assay conditions were as follows: • 0.065 mg/mL RORγt • 60 μM 1,8-ANS • 100 mM Hepes, pH 7.0 • 10 mM NaCl • 2.5 mM GSH • 0.002% Tween-20
Project compounds were arranged in a pre-dosed mother plate (Greiner Bio-one) wherein compounds are serially diluted in 100% DMSO by 1:2 from a high concentration of 10 mM over 12 columns within a series (column 12 is a reference well containing DMSO, no compound).
The compounds were robotically dispensed directly into assay plates (1×=[…]) using a Hummingbird capillary liquid handling instrument (Digilab). Following compound dispense, protein and dye in buffer was added to achieve the final assay volume of 3 μL, followed by 1 μL of silicone oil.

The next assay deals with T2, human RORγt LBD (Homo sapiens, UniProt P51449).
T2 construct: expressed in transfected cells
T2 sequence (P51449 258-518): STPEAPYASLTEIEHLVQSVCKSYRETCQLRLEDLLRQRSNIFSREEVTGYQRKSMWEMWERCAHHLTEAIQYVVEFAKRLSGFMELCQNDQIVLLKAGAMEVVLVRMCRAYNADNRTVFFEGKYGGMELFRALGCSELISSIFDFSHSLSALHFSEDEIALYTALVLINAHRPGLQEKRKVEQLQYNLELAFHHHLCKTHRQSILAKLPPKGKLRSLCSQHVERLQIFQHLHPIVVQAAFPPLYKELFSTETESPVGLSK
The assay is described as follows: RORγt reporter assay (GAL4-RORγt LBD luciferase in HEK293T cells). The note with it: for RORγt reporter Assay, % inhibition @ 6 μM / IC50: HEK293T cells; for RORγt reporter Assay, % inhibition @ 6 μM: 6 μM compound; for IC50: 24 hours compound treatment; for inhibition at 6 µM: HEK-293T, read-out: RORγt reporter Assay, % inhibition @ 6 μM, HEK293T cells, 6 μM compound. The class given is cell-based. The text has this:
A reporter assay was used to test functional activity of RORγt modulatory compounds on transcriptional activation driven by the RORγt LBD. Cells used in the assay were co-transfected with two constructs. The first construct, pBIND-RORγt LBD, contained the wild type human RORγt LBD fused to the DNA binding domain of the GAL4 protein. The second construct, pGL4.31 (Promega Cat no. C935A), contained multiple GAL4 responsive DNA elements upstream of firefly luciferase. […] The mutant construct was called pBIND-RORγt-AF2.
The pBIND vector contains the GAL4 DNA Binding Domain (GAL4 DBD) and the renilla luciferase gene under control of the SV40 promoter. Renilla luciferase expression serves as a control for transfection efficiency and cell viability.
The reporter assay was performed by transiently transfecting HEK293T cells with 5 ng of pBIND-RORγt LBD or pBIND-RORγt LBD-AF2 and 5 μg pGL4.31 (Promega Cat no. C935A) using Fugene 6 (Invitrogen Cat no. E2691) at a 1:6 ratio of DNA:Fugene 6 in a T-75 flask in which cells were at least 80% confluent. Twenty four hours after bulk transfection, cells were plated into 96-well plates at 50,000 cells/well in phenol-red free DMEM containing 5% Lipid Reduced FCS and Pen/Strep. Six hours after plating, cells were treated with compounds for 24 hours. Media was removed and cells were lysed with 50 μL 1× Glo Lysis Buffer (Promega). Dual Glo Luciferase Reagent (50 μL/well) was then added and firefly luciferase luminescence was read on an Envision after a ten minute incubation. Finally, Stop and Glo reagent (50 μL/well) was added and renilla luciferase luminescence was read on an Envision after a ten minute incubation. To calculate the effect of compounds on RORγt activity, the ratio of firefly to renilla luciferase was determined and plotted against compound concentration. Agonist compounds increase RORγt-driven luciferase expression, and antagonist or inverse agonist compounds decrease luciferase expression.

Where a name gives a salt, the structure may show the parent alone.

Consider `COc1nc2c(C)cc(C(O)(c3ccc(F)cc3)c3cncn3C)cc2c(Cl)c1-c1cccc(F)c1` (single isomer, unassigned) [Example 178b, (4-Chloro-3-(3-fluorophenyl)-2-methoxy-8-methylquinolin-6-yl)(4-fluorophenyl)(1-methyl-1H-imidazol-5-yl)methanol], for which, in assay [1], the Kd (in general, the equilibrium constant for the complex coming apart) is 21 µM. Moreover, on human RORγt LBD, the “RORγt reporter Assay, % inhibition @ 6 μM” value is given as 72% and the IC50 (as a rule, the point on the concentration scale where inhibition reaches its midpoint) turned out to be 0.61 µM.
For `COc1nc2c(C)cc(C(O)(c3ccc(C(F)(F)F)nc3)c3cncn3C)cc2c(C#N)c1-c1cccc(F)c1` (single isomer, unassigned) [Example 179b, 3-(3-Fluorophenyl)-6-(hydroxy(1-methyl-1H-imidazol-5-yl)(6-(trifluoromethyl)pyridin-3-yl)methyl)-2-methoxy-8-methylquinoline-4-carbonitrile], the Kd in assay [1] was 6.6 µM. Besides, at human RORγt LBD, it took 1.3 µM to reach half-maximal inhibition (IC50) and the inhibition (usually the drop in the measured response relative to a control, in per cent) at 6 µM was determined as 98%.
With `Cc1cc(C(O)(c2ccc(C(F)(F)F)nc2)c2cncn2C)cc2c(C#N)c(-c3ccc(F)cc3)c(C#N)nc12` (single isomer, unassigned) [Example 184b, 3-(4-Fluorophenyl)-6-(hydroxy(1-methyl-1H-imidazol-5-yl)(6-(trifluoromethyl)pyridin-3-yl)methyl)-8-methylquinoline-2,4-dicarbonitrile], the Kd in assay [1] is 2.5 µM. In addition, at human RORγt LBD, the IC50 worked out at 3 µM and the inhibition at 6 µM was 99%.
Consider `Cn1cncc1C(O)(c1ccc2nc(C(F)(F)F)c(-c3ccccc3)c(C(F)(F)F)c2c1)c1ccccn1` (single isomer, unassigned) [Example 185c, (1-Methyl-1H-imidazol-5-yl)(3-phenyl-2,4-bis(trifluoromethyl)quinolin-6-yl)(pyridin-2-yl)methanol], for which the Kd in assay [1] is 0.76 µM. On human RORγt LBD, the “RORγt reporter Assay, % inhibition @ 6 μM” value came to 91% and the IC50 worked out at 0.81 µM.
For `Cc1nn(C)c(C)c1C(O)(c1ccccc1)c1ccc2nc(Cl)c(-c3ccccc3)c(Cl)c2c1` (stereo not drawn) [Example 4, (2,4-Dichloro-3-phenylquinolin-6-yl)(phenyl)(1,3,5-trimethyl-1H-pyrazol-4-yl)methanol], the Kd in assay [1] was 3.3 µM. Moreover, at human RORγt LBD, the IC50 is 3.2 µM and the inhibition at 6 µM came to 97%.
For the molecule `CC(C)(C)OC(=O)N1CCCC(C(O)(c2cccnc2)c2ccc3nc(Cl)c(-c4ccccc4)c(Cl)c3c2)C1` (stereo not drawn) [Example 5, tert-Butyl 3-((2,4-Dichloro-3-phenylquinolin-6-yl)(hydroxy)(pyridin-3-yl)methyl)piperidine-1-carboxylate], in assay [1], the Kd is 21 µM. Moreover, on human RORγt LBD, the IC50 was determined as 0.38 µM and the inhibition at 6 µM amounted to 79%.
For the molecule `Cc1nn(C)c(C)c1C(O)(c1ccccc1)c1ccc2nc(Cl)c(-c3ccccc3Cl)c(Cl)c2c1` (stereo not drawn) [Example 7, (2,4-Dichloro-3-(2-chlorophenyl)quinolin-6-yl)(phenyl)(1,3,5-trimethyl-1H-pyrazol-4-yl)methanol], the Kd in assay [1] is 5.3 µM. Further, at human RORγt LBD, the IC50 stood at 1.2 µM and the inhibition at 6 µM came to 83%.
For the molecule `COc1nc2ccc(C(O)(c3ccc(Cl)cc3)c3cncn3C)cc2cc1-c1ccccc1` (stereo not drawn) [Example 9], the Kd in assay [1] was 7.1 µM. Also, at human RORγt LBD, the IC50 was 6.1 µM and the inhibition at 6 µM was 70%.
The corresponding values for `CN(C)c1ccc(C(O)(c2ccc3nc(Cl)c(-c4ccccc4)c(Cl)c3c2)c2cncn2C)cn1` (stereo not drawn) [Example 11, (2,4-Dichloro-3-phenylquinolin-6-yl)[6-(dimethylamino)pyridin-3-yl](1-methyl-1H-imidazol-5-yl)methanol•TFA] are 1.1 µM, 4.2 µM and 75%.
For the molecule `CN1CCN(c2nc3ccc(C(O)(c4ccncc4)c4cncn4C)cc3c(Cl)c2-c2ccccc2)CC1` (stereo not drawn) [Example 19, [4-Chloro-2-(4-methylpiperazin-1-yl)-3-phenylquinolin-6-yl](1-methyl-1H-imidazol-5-yl)pyridin-4-ylmethanol•TFA], the Kd in assay [1] was 9.1 µM. Besides, at human RORγt LBD, the IC50 is more than 6 µM and the inhibition at 6 µM came out at 13%.
Regarding `COCOc1ccc(C(O)(c2cccnc2)c2ccc3nc(Cl)c(-c4ccccc4)c(Cl)c3c2)cc1` (stereo not drawn) [Example 23, (2,4-Dichloro-3-phenylquinolin-6-yl)[4-(methoxymethoxy)phenyl]pyridin-3-ylmethanol], the Kd in assay [1] is 0.23 µM. On human RORγt LBD, half-maximal inhibition (IC50) required 0.8 µM and the inhibition at 6 µM stood at 89%.
For `OC(c1ccncc1)(c1ccc2nc(Cl)c(-c3ccccc3)c(Cl)c2c1)c1ccccn1` (stereo not drawn) [Example 27, (2,4-Dichloro-3-phenylquinolin-6-yl)(pyridin-2-yl)pyridin-4-ylmethanol•TFA] the same measures were 8.3 µM, 4.2 µM and 75%.
In the case of `OC(c1cccnc1)(c1ccc2nc(Cl)c(-c3ccccc3)c(Cl)c2c1)c1ccccc1Cl` (stereo not drawn) [Example 28, (2-Chlorophenyl)(2,4-dichloro-3-phenylquinolin-6-yl)pyridin-3-ylmethanol•TFA], in assay [1], the dissociation constant (Kd) is 0.23 µM. At human RORγt LBD, the IC50 was approximately 0.2 µM and the inhibition at 6 µM is 99%.
In the case of `Cn1cncc1C(N)(c1ccc2nc(Cl)c(-c3ccccc3)c(Cl)c2c1)c1ccccn1` (stereo not drawn) [Example 31, 1-(2,4-Dichloro-3-phenylquinolin-6-yl)-1-(1-methyl-1H-imidazol-5-yl)-1-pyridin-2-ylmethanamine•HCl], the Kd in assay [1] is 5.6 µM. Further, on human RORγt LBD, it took 2.1 µM to reach half-maximal inhibition (IC50) and the inhibition at 6 µM was 67%.
As for `CN(C)c1c(-c2ccccc2)c(Cl)nc2ccc(C(O)(c3ccc(Cl)cc3)c3cccnc3)cc12` (stereo not drawn) [Example 33, [2-Chloro-4-(dimethylamino)-3-phenylquinolin-6-yl](4-chlorophenyl)pyridin-3-ylmethanol•TFA], the Kd in assay [1] is 3.3 µM. Further, on human RORγt LBD, the IC50 turned out to be 2 µM and the inhibition at 6 µM stood at 78%.
`CN(C)c1c(-c2ccccc2)c(Cl)nc2ccc(C(O)(c3ccc(F)cc3)c3cccnc3)cc12` (stereo not drawn) [Example 39, [2-Chloro-4-(dimethylamino)-3-phenylquinolin-6-yl](4-fluorophenyl)pyridin-3-ylmethanol•TFA]: in assay [1], the Kd is 2.5 µM. For the same molecule, on human RORγt LBD, the IC50 amounted to 1.6 µM and the inhibition at 6 µM came to 86%.
Take `CN(C)c1c(-c2ccccc2)c(Cl)nc2ccc(C(O)(c3cccnc3)c3cccc(Cl)c3)cc12` (stereo not drawn) [Example 42, [2-Chloro-4-(dimethylamino)-3-phenylquinolin-6-yl](3-chlorophenyl)pyridin-3-ylmethanol•TFA]: in assay [1], the Kd is 1.4 µM. In addition, on human RORγt LBD, the IC50 was approximately 2 µM and the inhibition at 6 µM worked out at 91%.
